The subject of series [1] is IgE synthesis. The series is described as follows: IgE ELISA of human PBMC treated with anti CD40 and IL-4 for three weeks. The conditions noted are these: 504 h, human PBMCs in presence of CD40+IL-4 for three weeks (FIGS. 11A and B), read-out: IC50 of inhibition of IgE synthesis. The class given is cell-based. The protocol:
Human PBMCs (1×10^6/ml) were treated with immunomodulatory compounds in presence of anti-CD40 (2 ug/ml) and IL-4 (40 ng/ml) for three weeks. Fifty microliter of supernatant was used for IgE ELISA, following the manufacturer's instruction. The absorbance was read by ELISA reader at OD=450 nm.
IL-4 is a unique signal for B cells to produce IgE during the immunoglobulin class switch. To assess whether immunomodulatory compounds can regulated IgE synthesis, 1,3-dioxo-(2,6-dioxopiperidin-3-yl)-4-aminoisoindoline or 1-oxo-(2,6-dioxopiperidin-3-yl)-4-aminoisoindoline was incubated with human PBMCs in presence of CD40+IL-4 for three weeks. […] (FIGS. 11A and B).
Treatment of PBMC: 200 μl of 1×10^6/ml human PBMC were plated in 96 well plate, and the cells were pretreated with IMiDs at indicated concentrations (60, 6, 0.6, 0.06, 0.006, 0.0006 uM) for 30 minutes. Anti CD40 (#AHS4002, Biosource, 2 μg/ml) and IL-4 (#200-04, Pepro Tech, 40 ng/ml) were added to each well. Human PBMC in presence of IMiDs, anti CD40 and IL-4 were incubated for three weeks. Fifty microliters of supernatant was subjected to IgE ELISA.
IgE ELISA: The IgE ELISA Quantitation Kit was purchased from Bethyl Laboratories, Inc. (#E80-108). […] The ELISA plate was read at OD=450 nm in ELISA plate reader.

In series [2] the test system is CD69. The experiment in a line: FACS analysis of CD69 expression in CD19+ B cells. Type of series: cell-based, human. The procedure: (§1) Human buffy coat (50 ml) was diluted with 50 ml sterile PBS (Ca^++, Mg^++ free), and mixed gently. A 25 ml aliquot of diluted buffy coat was transferred to each 50 ml centrifuge tube, and Histopaque-1077 (14 ml, #1077-1, Sigma) was gently layered into the bottom of the tube. The sample was centrifuged at 2,000 rpm for 30 min at room temperature. The interface containing mononuclear cells was transferred into 50 ml centrifuge tube, and washed once with PBS (1200 rpm, 5 min). The supernatant was discarded. Cell pellet was resuspended in Miltenyi buffer. Anti-CD19^+ microbeads were added to the suspension (10^7 cells in 80 μl of buffer, 20 μl antibody beads for 10^7 cells) and incubated for 15 min at 4° C. Cell pellet was washed once and resuspended in 1 ml Miltenyi buffer. The cell suspension was added to the magnetic column, washed with 10 ml Miltenyi buffer in the column. CD19^+ cells are released by 1 ml Miltenyi Buffer without magnetic field. CD19^+ cells were washed twice with RPMI complete medium. B cells (2×10^5) were plated in 96 well plate.
B cells were treated with 1,3-dioxo-(2,6-dioxopiperidin-3-yl)-4-aminoisoindoline (FIG. 3A) or 1-oxo-(2,6-dioxopiperidin-3-yl)-4-aminoisoindoline (FIG. 3B) in presence of anti IgM, anti CD40 and IL-4 for 3 days. The suspension of B cells was washed by PBS once, and incubated with FITC conjugated anti human CD69 for 30 min in the dark. B cells were subject to FACS analysis using flow cytometer (EPICS XL-MCL, Beckman Coulter Company).
To assess whether the effects of immunomodulatory compounds on IL-4 signaling impact on IL-4 mediated B cell activation, FACS array of immediate early expression marker CD69 expression at triplicates and six doses was examined using 1,3-dioxo-(2,6dioxopiperidin-3-yl)-4-aminoisoindoline or 1-oxo-(2,6-dioxopiperidin-3-yl)-4-aminoisoindoline. […] Thus, it is clear that immunomodulatory compounds have no impact on this process.

Series [3] concerns TNFα. The series is described as follows: TNFα ELISA of treated B cells. Type of series: cell-based, human. As to conditions: activated CD19+ cells (FIG. 4). The protocol:
as §1, with “plate. […]” for “plate.”
TNFα levels in 1,3-dioxo-(2,6-dioxopiperidin-3-yl)-4-aminoisoindoline or 1-oxo-(2,6-dioxopiperidin-3-yl)-4-aminoisoindoline treated B cells were determined using TNFα ELISA.

The test system of series [4] is B cells. The series is described as follows: B cell proliferation by BrdU ELISA. As to conditions: 3 days (FIG. 7A). Type of series: cell-based, human. The protocol:
as §1
B cells were pretreated with 1,3-dioxo-(2,6-dioxopiperidin-3-yl)-4-aminoisoindoline or 1-oxo-(2,6-dioxopiperidin-3-yl)-4-aminoisoindoline at the concentrations of 60 μM, 6 μM, 0.6 μM, 0.06 μM, 0.006 μM, and 0.0006 μM for 30 min, then were added 2 μg/ml of anti-IgM, 2 μg/ml of anti CD40, 40 ng/ml IL-4, 100 ng/ml of recombinant BAFF, and/or 0.5 μg/ml of LPS. B cells were typically treated with the immunomodulatory compound alone or in presence of one or more of above stimuli for 3 days. Stimulated B cells with or without the treatment with immunomodulatory compound were used for cell proliferation assay and cytokines analysis.
The crosslinking of B cell receptor antigen (“BCR”) is the primary signal for B cell activation in response to antigen, and is critical in initializing subsequent B cell activation, proliferation, and differentiation. To assess B cell activation, B cells were treated with 1,3-dioxo-(2,6-dioxopiperidin-3-yl)-4-aminoisoindoline or 1-oxo-(2,6-dioxopiperidin-3-yl)-4-aminoisoindoline in presence of stimuli for 3 days. 25 μl BrdU was added to 250 μl cell culture 24 hours before harvesting cells. B cells were dried at 60° C. after removal of labeling supernatant. 100 μl FixDenat solution was added to fix cells for 30 min at room temperature. FixDenat solution was removed by tapping plate, then 100 μl anti-BrdU-POD was added each well for 90 min, at room temperature, and the plate was washed three 3 times. 100 μl of substrate was added to plate for 10 min, then 100 μl stop solution was added. Absorbance was measured by using an ELISA microplate reader (Molecular Devices) at OD 450 nm. […]

For series [5] the following is noted: cited from earlier work; for hygroscopicity: crystalline polymorphic form; for interconversion of the polymorphic form: solvent system, humidity or heating.

The source of these data is patent publication US8394832B2, “Methods and compositions using immunomodulatory compounds for the treatment of immunodeficiency disorders” (Celgene Corporation, priority 2004, dated 2013).

In the case of `Nc1cccc2c1CN(C1CCC(=O)NC1=O)C2=O` (stereo not shown) [1-oxo-(2,6-dioxopiperidin-3-yl)-4-aminoisoindoline], the IC50 in series [1] was 100 to 300 nM. Further, the CD69 expression entry in series [2] (CD19+ B cells treated with anti human IgM, anti human CD40 and IL-4, 3 days (FIGS. 3A, 3B)) is “dose-dependently enhanced”; in series [2] (IL-4 stimulated CD19+ B cells, triplicates, six doses (FIGS. 10A and B)), “neither immunomodulatory compound inhibited”. For the same compound, in series [3], the “TNFα production in B cells” value is given as “dose dependently enhance”. Also, the B cell proliferation entry in series [4] (combined with IgM (anti-IgM)) was “enhance”. In series [4] (compound alone), the “effect on B cell activation/proliferation” value is “minimal effect”.

On to `Nc1cccc2c1CN(C1CCC(=O)NC1=O)C2=O` (stereo not shown) [Form D, 3-(4-amino-1-oxo-1,3 dihydro-isoindol-2-yl)-piperidene-2,6-dione], for which, in series [5], the hygroscopicity entry was “either weakly or not hygroscopic” and the “interconversion of the polymorphic form” value was “will typically convert to Form B when stressed at higher relative humidities”.

For `Nc1cccc2c1CN(C1CCC(=O)NC1=O)C2=O` (stereo not shown) [Form A, 3-(4-amino-1-oxo-1,3 dihydro-isoindol-2-yl)-piperidene-2,6-dione], in series [5] (Form A among anhydrous polymorphs, Form E in aqueous solvent systems), the “relative stability of the polymorphic form” value is recorded as “most thermodynamically stable anhydrous polymorph”. Further, in series [5], the hygroscopicity entry was “weakly or not hygroscopic”.

For `Nc1cccc2c1CN(C1CCC(=O)NC1=O)C2=O` (stereo not shown) [Form C, 3-(4-amino-1-oxo-1,3 dihydro-isoindol-2-yl)-piperidene-2,6-dione], in series [5], the hygroscopicity result was “not hygroscopic below about 85% RH” and the “interconversion of the polymorphic form” value was “can convert to Form B at higher relative humidities”.

Turning to `Nc1cccc2c1CN(C1CCC(=O)NC1=O)C2=O` (stereo not shown) [Form B, 3-(4-amino-1-oxo-1,3 dihydro-isoindol-2-yl)-piperidene-2,6-dione], the “interconversion of the polymorphic form” value in series [5] is “converts to Form E in aqueous solvent systems”.
